Test results reported in US20030175735A1, “Recombinant adenylcyclase and use thereof for screening molecules with proteolytic activity” (priority 2000, published 2003).

Columns and labels:
wild-type HIV protease [1] = format: cell-based; settings: for phenotype in the presence of inhibitor: Cya− in the absence of inhibitor
Description: (§1) The bacteria are cultured in Luria-Bertani (LB) liquid or agar (15 g/l agar) medium. Their ability to ferment sugars is tested on McConkey agar medium containing 1% of maltose (Miller, 1972, Experiments in Molecular Genetics, Cold Spring Harbor Lab. Press, Cold Spring Harbor, N.Y.). The antibiotics are used at the following concentrations: ampicillin: 100 μg/ml and kanamycin: 50 μg/ml. The protease inhibitors, indinavir (Crixivan, Merck) and saquinavir (Invirase, Roche) are dissolved, respectively, in ethanol and in water (final concentration 20 mM) and then diluted in the culture media at the concentrations indicated.
A chimeric protein (ACPr) was therefore constructed (example 2), into which is inserted, between amino acids 224 and 225 of the adenyl cyclase, the HIV protease (99 residues) and its two cleavage sequences p5 and p6 (each one 8 amino acids) .

HIV protease mutant B1 = settings: modified protease B1
Description: (§3) The mutations are described relative to the amino acid sequence (1-99) of the reference virus protease (V: Val; I: Ile; M: Met; T: Thr; L: Leu and P: Pro). The level of resistance of the mutants corresponds to the relative increase (compared to the wild-type protease) in the concentration of inhibitors required to inhibit 50% of the viral replication.

HIV protease mutant B3 [2] = assay: system in cis: phenotype of DHT1 with pKACB3; format: cell-based
Description: as §1
(§2) For this study, the B1, B3, V1 and V2 proteases are inserted between amino acids 224 and 225 of the adenyl cyclase and the chimeric proteins obtained are expressed in the DHT1 strain (plasmids pKACB1, pKACB3, pKACV1 and pKACV2).

HIV protease mutant V1 = settings: modified protease V1 (L63P)
Description: as §3

HIV protease mutant V2 [3] = format: cell-based
Description: as §1
The DNA encoding the modified proteases was cloned into the vector of pUC19 (example 2) and the plasmids obtained were cotransformed with pKACp5 into the DHT1 strain. The phenotype of the transformed bacteria is observed on McConkey maltose medium containing or not containing protease inhibitors.

HIV protease mutant V2 [4] = settings: modified protease V2 (L10I, L63P, L90M)
Description: as §3

HIV protease mutant B3 [5] = settings: modified protease B3 (M46I, V77I, V82T)
Description: as §3

HIV protease mutant V2 [6] = assay: system in cis: phenotype of DHT1 with pKACV2; format: cell-based
Description: as §1, §2

wild-type HIV protease [7] = target: wild-type HIV protease (Human immunodeficiency virus type 1 group M subtype B, UniProt P04585); format: cell-based
Description: as §1
In order to test this system, a recombinant protein according to the invention, ACp5, into which is inserted, between amino acids 224 and 225 of the adenyl cyclase, the p5 cleavage site of the HIV protease, was generated. The plasmid expressing this protein (pKACp5, example 2) was cotransformed into an E. coli cya strain, with a compatible plasmid carrying or not carrying the wild-type HIV protease (pUCVIH or pUC19).

SMILES	concentration up to which the bacteria have a Cya− phenotype (wild-type HIV protease [1]) [µM]	phenotype on medium containing 100 μM indinavir (wild-type HIV protease [1]; pKACPr, system in cis)	phenotype in the presence of inhibitor (wild-type HIV protease [1]; pKACPr, system in cis)	Resistance to inhibitor: relative increase (compared to the wild-type protease) in the concentration required to inhibit 50% of the viral replication (HIV protease mutant B1) [X]	concentration up to which the bacteria have a Cya− phenotype (HIV protease mutant B3 [2]) [µM]	Resistance to inhibitor: relative increase (compared to the wild-type protease) in the concentration required to inhibit 50% of the viral replication (HIV protease mutant V1) [X]	concentration needed for the bacteria to become Cya+ (HIV protease mutant V2 [3]) [µM]	Resistance to inhibitor: relative increase (compared to the wild-type protease) in the concentration required to inhibit 50% of the viral replication (HIV protease mutant V2 [4]) [X]	Resistance to inhibitor: relative increase (compared to the wild-type protease) in the concentration required to inhibit 50% of the viral replication (HIV protease mutant B3 [5]) [X]	phenotype on medium containing 100 μM indinavir (HIV protease mutant V2 [6])	concentration needed for the bacteria to become Cya+ (wild-type HIV protease [7]) [µM]	phenotype on medium containing 20 μM of saquinavir (wild-type HIV protease [1]; pKACPr, system in cis)	phenotype at 10 μM (wild-type HIV protease [1]; pKACPr, system in cis, 10 μM saquinavir)	phenotype at 10 μM (HIV protease mutant B3 [2]; 10 μM saquinavir)	phenotype on medium containing 20 μM of saquinavir (HIV protease mutant V2 [6])
CC(C)(C)NC(=O)[C@@H]1CN(Cc2cccnc2)CCN1C[C@@H](O)C[C@@H](Cc1ccccc1)C(=O)N[C@H]1c2ccccc2C[C@H]1O [indinavir]	50	red colonies	Cya^+	1	100	1	50	4	13	Cya^−	50	–	–	–	–
CC(C)(C)NC(=O)[C@@H]1C[C@@H]2CCCC[C@@H]2CN1C[C@@H](O)[C@H](Cc1ccccc1)NC(=O)[C@H](CC(N)=O)NC(=O)c1ccc2ccccc2n1 [saquinavir]	–	–	Cya^+	1	–	1	20	53	3	–	10	red colonies	red	Cya^−	Cya^−
